Data: ChEMBL document CHEMBL1153597, “A new synthesis of caged GABA compounds for studying GABAA receptors” (Bioorg Med Chem Lett, 2009)
Calls of active or inactive are those of the source.

Columns and labels:
Assay type in all cases: cell-based
Conditions in all cases: HEK-293T
[1] = target: T1, Gamma-aminobutyric acid receptor subunit alpha-1 (Homo sapiens) (UniProt P14867); test: Neurotransmitter activity at GABAA alpha1 receptor expressed in HEK293T cells assessed as release of GABA-induced permeability to chloride ions by photolysis technique
T1 sequence (whole entry): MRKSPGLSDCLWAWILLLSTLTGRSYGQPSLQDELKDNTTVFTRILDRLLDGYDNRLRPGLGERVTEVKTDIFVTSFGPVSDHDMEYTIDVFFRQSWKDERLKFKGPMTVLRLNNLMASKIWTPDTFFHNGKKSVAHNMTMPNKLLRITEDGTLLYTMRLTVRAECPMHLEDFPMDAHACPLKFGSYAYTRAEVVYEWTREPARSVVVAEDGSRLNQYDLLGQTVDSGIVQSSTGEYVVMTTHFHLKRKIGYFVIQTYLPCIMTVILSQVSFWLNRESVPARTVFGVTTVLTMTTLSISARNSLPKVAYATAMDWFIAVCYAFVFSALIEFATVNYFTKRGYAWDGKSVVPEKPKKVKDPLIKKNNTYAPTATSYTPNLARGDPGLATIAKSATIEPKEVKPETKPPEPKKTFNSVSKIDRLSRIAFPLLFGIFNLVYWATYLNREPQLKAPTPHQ

[2] = target: T2, Gamma-aminobutyric acid receptor subunit beta-2 (Homo sapiens) (UniProt P47870); test: Neurotransmitter activity at GABAA beta2 receptor expressed in HEK293T cells assessed as release of GABA-induced permeability to chloride ions by photolysis technique
T2 sequence (whole entry): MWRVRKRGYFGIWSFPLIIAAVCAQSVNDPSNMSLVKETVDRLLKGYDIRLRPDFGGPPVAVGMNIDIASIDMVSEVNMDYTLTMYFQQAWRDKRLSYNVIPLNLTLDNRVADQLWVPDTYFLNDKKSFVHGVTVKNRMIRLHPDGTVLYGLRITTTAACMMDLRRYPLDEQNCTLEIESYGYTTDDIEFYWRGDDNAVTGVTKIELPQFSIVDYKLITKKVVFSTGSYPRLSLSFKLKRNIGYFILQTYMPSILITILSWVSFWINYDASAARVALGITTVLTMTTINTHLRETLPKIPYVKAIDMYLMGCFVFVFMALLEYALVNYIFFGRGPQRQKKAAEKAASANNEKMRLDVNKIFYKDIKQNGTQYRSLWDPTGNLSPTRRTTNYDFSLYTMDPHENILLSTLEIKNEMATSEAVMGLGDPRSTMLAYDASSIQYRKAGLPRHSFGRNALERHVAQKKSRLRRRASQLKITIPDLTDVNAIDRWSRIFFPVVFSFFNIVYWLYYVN

[3] = target: T3, Gamma-aminobutyric acid receptor subunit delta (Homo sapiens) (UniProt O14764); test: Neurotransmitter activity at GABAA delta receptor expressed in HEK293T cells assessed as release of GABA-induced membrane permeability to chloride ions by photolysis technique
T3 sequence (whole entry): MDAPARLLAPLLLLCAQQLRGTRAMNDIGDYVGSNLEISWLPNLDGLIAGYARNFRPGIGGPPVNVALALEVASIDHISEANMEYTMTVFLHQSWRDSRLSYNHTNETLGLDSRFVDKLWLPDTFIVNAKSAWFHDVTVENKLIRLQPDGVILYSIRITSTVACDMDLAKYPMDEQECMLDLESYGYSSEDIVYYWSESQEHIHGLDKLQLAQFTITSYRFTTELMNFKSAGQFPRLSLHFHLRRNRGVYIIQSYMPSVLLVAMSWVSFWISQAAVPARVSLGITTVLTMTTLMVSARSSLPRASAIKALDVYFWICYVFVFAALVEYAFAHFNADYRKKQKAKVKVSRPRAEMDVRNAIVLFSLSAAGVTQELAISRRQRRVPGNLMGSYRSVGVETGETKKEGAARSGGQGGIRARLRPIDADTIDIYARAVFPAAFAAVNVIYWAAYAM

Measured: Activity

CCOC(=O)CNC(=O)C(OC(=O)CCCN)c1cc(=O)oc2cc(N(CC)CC)ccc12 (stereo not drawn)
active: all assays above
